Test results: the kinase profiling compilation of Christmann-Franck et al. (2016)

Experiments:
Assay in all cases: KINOMEscan competition binding
Conditions in all cases: compound 10.0 µM
ACVRL1 (human) = ACVRL1 (human) (UniProt P37023)
ADCK3 (human) = ADCK3 (human) (UniProt Q8NI60)
AKT2 (human) = AKT2 (human) (UniProt P31751)
BTK (human) = BTK (human) (UniProt Q06187)
CAMK1D (human) = CAMK1D (human) (UniProt Q8IU85)
CAMK2A (human) = CAMK2A (human) (UniProt Q9UQM7)
CAMK4 (human) = CAMK4 (human) (UniProt Q16566)
CDKL5 (human) = CDKL5 (human) (UniProt O76039)
CLK4 (human) = CLK4 (human) (UniProt Q9HAZ1)
[1] = tested on: EGFR (human), P00533 [G719C]
EPHB6 (human) = EPHB6 (human) (UniProt O15197)
FRK (human) = FRK (human) (UniProt P42685)
GRK1 (human) = GRK1 (human) (UniProt Q15835)
Sequence of GRK1 (human) (Q15835 whole entry, looked up): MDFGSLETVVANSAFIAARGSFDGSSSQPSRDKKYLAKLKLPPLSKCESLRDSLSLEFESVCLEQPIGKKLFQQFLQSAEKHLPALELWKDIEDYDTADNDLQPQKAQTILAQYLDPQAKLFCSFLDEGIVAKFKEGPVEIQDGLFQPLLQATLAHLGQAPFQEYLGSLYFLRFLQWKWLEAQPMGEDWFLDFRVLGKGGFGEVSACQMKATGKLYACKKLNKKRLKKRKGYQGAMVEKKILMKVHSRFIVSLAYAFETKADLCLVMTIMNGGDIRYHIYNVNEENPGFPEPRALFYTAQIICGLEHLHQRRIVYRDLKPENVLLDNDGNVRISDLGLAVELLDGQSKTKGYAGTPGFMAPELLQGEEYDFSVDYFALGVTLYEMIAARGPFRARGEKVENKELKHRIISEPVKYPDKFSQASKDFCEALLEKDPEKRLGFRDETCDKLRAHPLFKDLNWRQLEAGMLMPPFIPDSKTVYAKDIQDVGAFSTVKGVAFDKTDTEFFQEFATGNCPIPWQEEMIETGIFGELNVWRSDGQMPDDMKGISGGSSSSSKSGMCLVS

HIPK2 (human) = HIPK2 (human) (UniProt Q9H2X6)
Sequence of HIPK2 (human) (Q9H2X6 whole entry, looked up): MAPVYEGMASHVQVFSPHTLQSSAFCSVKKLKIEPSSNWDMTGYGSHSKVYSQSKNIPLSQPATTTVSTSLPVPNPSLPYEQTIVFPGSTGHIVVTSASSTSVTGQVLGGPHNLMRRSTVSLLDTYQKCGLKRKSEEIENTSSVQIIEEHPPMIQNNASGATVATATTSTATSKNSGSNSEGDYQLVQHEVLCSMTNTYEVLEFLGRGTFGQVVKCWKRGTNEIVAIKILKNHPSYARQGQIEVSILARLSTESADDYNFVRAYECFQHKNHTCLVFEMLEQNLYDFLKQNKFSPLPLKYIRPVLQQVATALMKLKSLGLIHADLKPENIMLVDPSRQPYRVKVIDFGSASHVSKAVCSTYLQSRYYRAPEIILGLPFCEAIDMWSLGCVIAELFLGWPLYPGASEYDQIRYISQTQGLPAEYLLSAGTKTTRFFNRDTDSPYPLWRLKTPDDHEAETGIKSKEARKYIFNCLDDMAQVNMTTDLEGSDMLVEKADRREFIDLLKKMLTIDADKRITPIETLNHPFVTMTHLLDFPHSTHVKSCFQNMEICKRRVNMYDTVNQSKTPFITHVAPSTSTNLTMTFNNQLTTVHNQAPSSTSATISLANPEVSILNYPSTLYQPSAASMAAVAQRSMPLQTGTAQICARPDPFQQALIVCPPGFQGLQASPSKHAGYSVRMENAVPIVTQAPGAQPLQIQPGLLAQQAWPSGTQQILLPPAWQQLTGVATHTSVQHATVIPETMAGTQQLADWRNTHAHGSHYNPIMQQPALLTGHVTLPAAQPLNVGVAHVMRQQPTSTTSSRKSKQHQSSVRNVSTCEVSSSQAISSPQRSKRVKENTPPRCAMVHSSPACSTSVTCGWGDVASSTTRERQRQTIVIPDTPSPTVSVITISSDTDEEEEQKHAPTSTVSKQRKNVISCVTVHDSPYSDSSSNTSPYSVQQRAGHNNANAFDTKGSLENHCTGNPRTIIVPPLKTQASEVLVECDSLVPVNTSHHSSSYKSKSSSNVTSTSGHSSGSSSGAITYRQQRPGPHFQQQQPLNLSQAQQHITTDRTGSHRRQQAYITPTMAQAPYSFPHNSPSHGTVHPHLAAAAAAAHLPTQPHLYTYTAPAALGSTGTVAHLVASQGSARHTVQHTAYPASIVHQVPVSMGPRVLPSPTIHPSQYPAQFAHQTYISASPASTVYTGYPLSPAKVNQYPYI

MAP2K4 (human) = MAP2K4 (human) (UniProt P45985)
MAP3K5 (human) = MAP3K5 (human) (UniProt Q99683)
MAPK10 (human) = MAPK10 (human) (UniProt P53779)
MAPK4 (human) = MAPK4 (human) (UniProt P31152)
Sequence of MAPK4 (human) (P31152 whole entry, looked up): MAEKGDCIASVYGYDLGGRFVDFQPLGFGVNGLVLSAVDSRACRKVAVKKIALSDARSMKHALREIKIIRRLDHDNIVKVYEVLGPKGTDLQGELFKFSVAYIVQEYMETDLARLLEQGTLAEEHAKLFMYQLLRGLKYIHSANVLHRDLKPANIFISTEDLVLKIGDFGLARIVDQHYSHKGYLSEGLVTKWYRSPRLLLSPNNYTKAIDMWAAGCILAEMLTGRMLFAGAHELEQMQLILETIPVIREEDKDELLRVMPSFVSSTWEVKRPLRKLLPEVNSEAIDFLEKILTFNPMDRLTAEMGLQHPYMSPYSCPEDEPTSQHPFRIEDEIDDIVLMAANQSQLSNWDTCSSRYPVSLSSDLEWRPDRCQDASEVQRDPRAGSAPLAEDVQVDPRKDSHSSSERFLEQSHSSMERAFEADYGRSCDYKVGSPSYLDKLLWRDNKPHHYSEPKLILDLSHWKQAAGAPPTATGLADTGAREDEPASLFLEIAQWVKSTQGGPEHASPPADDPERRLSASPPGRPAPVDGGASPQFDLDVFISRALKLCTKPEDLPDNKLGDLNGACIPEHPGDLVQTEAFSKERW

MAPK8 (human) = MAPK8 (human) (UniProt P45983)
MAPK9 (human) = MAPK9 (human) (UniProt P45984)
[2] = tested on: MET (human), P08581 [M1250T]
MUSK (human) = MUSK (human) (UniProt O15146)
PAK6 (human) = PAK6 (human) (UniProt Q9NQU5)
PHKG1 (human) = PHKG1 (human) (UniProt Q16816)
PI4KB (human) = PI4KB (human) (UniProt Q9UBF8)
PIK3C2B (human) = PIK3C2B (human) (UniProt O00750)
PKN2 (human) = PKN2 (human) (UniProt Q16513)
Sequence of PKN2 (human) (Q16513 whole entry, looked up): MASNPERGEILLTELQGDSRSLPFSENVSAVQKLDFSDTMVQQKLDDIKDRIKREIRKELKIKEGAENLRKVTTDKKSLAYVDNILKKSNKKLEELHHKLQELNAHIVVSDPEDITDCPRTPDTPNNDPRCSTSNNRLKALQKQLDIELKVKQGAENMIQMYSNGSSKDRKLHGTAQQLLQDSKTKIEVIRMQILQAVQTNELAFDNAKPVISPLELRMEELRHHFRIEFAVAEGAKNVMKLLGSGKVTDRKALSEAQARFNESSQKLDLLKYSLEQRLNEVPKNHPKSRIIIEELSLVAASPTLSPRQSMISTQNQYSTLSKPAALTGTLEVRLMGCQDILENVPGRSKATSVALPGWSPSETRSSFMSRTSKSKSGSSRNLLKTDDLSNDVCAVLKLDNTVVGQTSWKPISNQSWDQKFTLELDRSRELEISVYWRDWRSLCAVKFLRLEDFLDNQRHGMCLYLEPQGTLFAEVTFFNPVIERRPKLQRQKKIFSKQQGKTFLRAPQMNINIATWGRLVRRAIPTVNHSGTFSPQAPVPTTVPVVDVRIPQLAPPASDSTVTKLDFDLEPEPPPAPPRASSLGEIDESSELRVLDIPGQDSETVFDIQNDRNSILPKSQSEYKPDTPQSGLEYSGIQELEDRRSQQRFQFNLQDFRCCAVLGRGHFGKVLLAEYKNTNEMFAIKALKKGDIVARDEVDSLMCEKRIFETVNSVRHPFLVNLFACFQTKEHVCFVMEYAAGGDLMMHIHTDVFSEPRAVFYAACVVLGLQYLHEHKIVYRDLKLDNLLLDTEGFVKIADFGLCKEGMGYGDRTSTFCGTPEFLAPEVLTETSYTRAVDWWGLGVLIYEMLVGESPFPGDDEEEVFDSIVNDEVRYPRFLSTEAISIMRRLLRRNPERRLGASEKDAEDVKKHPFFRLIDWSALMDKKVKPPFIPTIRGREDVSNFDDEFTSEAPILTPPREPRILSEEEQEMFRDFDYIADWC

PRKCH (human) = PRKCH (human) (UniProt P24723)
PRKCQ (human) = PRKCQ (human) (UniProt Q04759)
PRKX (human) = PRKX (human) (UniProt P51817)
PRPF4B (human) = PRPF4B (human) (UniProt Q13523)
RET (human) = RET (human) (UniProt P07949)
ROCK1 (human) = ROCK1 (human) (UniProt Q13464)
SRC (human) = SRC (human) (UniProt P12931)
STK11 (human) = STK11 (human) (UniProt Q15831)
STK17A (human) = STK17A (human) (UniProt Q9UEE5)
TIE1 (human) = TIE1 (human) (UniProt P35590)
Sequence of TIE1 (human) (P35590 whole entry, looked up): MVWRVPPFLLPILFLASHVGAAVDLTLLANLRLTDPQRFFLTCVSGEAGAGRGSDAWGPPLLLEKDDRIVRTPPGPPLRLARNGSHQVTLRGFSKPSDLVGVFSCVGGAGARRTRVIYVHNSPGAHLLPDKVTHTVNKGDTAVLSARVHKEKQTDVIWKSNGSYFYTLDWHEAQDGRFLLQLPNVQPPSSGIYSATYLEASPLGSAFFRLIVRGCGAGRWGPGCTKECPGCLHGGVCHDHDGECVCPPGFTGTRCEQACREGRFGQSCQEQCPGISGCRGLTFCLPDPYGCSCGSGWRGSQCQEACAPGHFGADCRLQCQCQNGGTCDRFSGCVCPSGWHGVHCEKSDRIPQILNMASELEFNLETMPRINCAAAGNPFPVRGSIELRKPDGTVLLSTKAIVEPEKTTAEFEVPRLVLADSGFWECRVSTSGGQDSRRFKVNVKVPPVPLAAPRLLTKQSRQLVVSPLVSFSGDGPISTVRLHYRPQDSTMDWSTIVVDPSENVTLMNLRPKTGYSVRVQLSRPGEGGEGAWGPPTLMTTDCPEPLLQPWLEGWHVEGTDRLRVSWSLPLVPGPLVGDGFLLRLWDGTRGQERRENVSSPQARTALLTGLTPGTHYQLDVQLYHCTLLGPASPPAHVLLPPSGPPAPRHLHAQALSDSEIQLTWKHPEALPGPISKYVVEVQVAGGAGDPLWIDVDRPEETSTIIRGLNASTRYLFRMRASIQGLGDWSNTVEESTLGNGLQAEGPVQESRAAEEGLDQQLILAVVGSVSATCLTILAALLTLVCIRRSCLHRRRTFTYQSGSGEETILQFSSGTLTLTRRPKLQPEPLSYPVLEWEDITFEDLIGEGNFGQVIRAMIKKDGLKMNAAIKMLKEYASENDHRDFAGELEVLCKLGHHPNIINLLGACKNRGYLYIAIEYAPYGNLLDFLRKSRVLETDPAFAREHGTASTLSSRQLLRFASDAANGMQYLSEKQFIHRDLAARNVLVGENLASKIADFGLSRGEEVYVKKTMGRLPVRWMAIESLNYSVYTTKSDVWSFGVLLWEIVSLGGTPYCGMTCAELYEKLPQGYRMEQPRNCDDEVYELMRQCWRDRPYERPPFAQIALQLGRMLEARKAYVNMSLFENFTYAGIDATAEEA

TRPM6 (human) = TRPM6 (human) (UniProt Q9BX84)
TTK (human) = TTK (human) (UniProt P33981)
ZAP70 (human) = ZAP70 (human) (UniProt P43403)
CLK1 (human) = CLK1 (human) (UniProt P49759)

Sequence of ACVRL1 (human) (P37023 whole entry, looked up): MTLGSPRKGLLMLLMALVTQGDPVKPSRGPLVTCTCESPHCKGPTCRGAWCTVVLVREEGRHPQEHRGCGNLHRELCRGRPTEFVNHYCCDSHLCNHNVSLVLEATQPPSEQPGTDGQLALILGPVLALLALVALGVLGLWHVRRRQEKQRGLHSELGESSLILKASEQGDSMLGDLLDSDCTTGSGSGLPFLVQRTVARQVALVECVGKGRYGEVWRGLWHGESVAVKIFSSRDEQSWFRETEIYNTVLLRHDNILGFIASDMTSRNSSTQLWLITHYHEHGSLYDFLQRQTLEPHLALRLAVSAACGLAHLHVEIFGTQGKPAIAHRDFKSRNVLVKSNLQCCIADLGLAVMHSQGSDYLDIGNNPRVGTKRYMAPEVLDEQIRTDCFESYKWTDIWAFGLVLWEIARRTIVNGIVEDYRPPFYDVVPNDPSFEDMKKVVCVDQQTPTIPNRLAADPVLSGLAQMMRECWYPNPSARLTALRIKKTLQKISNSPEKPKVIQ

Compound | kinase still bound, per cent of control (ACVRL1 (human)) [%] | kinase still bound, per cent of control (ADCK3 (human)) [%] | kinase still bound, per cent of control (AKT2 (human)) [%] | kinase still bound, per cent of control (CAMK1D (human)) [%] | kinase still bound, per cent of control (CAMK2A (human)) [%] | kinase still bound, per cent of control (CAMK4 (human)) [%] | kinase still bound, per cent of control (CDKL5 (human)) [%] | kinase still bound, per cent of control (CLK4 (human)) [%] | kinase still bound, per cent of control (EPHB6 (human)) [%] | kinase still bound, per cent of control (FRK (human)) [%] | kinase still bound, per cent of control (GRK1 (human)) [%] | kinase still bound, per cent of control (HIPK2 (human)) [%] | kinase still bound, per cent of control (MAP2K4 (human)) [%] | kinase still bound, per cent of control (MAP3K5 (human)) [%] | kinase still bound, per cent of control (MAPK10 (human)) [%] | kinase still bound, per cent of control (MAPK4 (human)) [%] | kinase still bound, per cent of control (MAPK8 (human)) [%] | kinase still bound, per cent of control (MAPK9 (human)) [%] | kinase still bound, per cent of control (MUSK (human)) [%] | kinase still bound, per cent of control (PAK6 (human)) [%] | further results
CCCS(=O)(=O)Nc1ccc(F)c(C(=O)c2c[nH]c3ncc(Cl)cc23)c1F | 100 | 92 | 68 | 78 | 84 | 100 | 92 | 51 | 3.6 | 19 | 100 | 20 | 6.6 | 74 | 90 | 100 | 96 | 71 | 71 | 45 | kinase still bound, per cent of control (BTK (human)): 52%; kinase still bound, per cent of control [1]: 50%; kinase still bound, per cent of control [2]: 78%; kinase still bound, per cent of control (PHKG1 (human)): 100%; kinase still bound, per cent of control (PI4KB (human)): 25%; kinase still bound, per cent of control (PIK3C2B (human)): 84%; kinase still bound, per cent of control (PKN2 (human)): 100%; kinase still bound, per cent of control (PRKCH (human)): 100%; kinase still bound, per cent of control (PRKCQ (human)): 79%; kinase still bound, per cent of control (PRKX (human)): 100%; kinase still bound, per cent of control (PRPF4B (human)): 82%; kinase still bound, per cent of control (RET (human)): 76%; kinase still bound, per cent of control (ROCK1 (human)): 77%; kinase still bound, per cent of control (SRC (human)): 9.2%; kinase still bound, per cent of control (STK11 (human)): 79%; kinase still bound, per cent of control (STK17A (human)): 44%; kinase still bound, per cent of control (TIE1 (human)): 61%; kinase still bound, per cent of control (TRPM6 (human)): 99%; kinase still bound, per cent of control (TTK (human)): 60%; kinase still bound, per cent of control (ZAP70 (human)): 85%
COc1cc2c(Nc3ccc(NC(=O)c4ccccc4)cc3)ncnc2cc1OCCCN1CCOCC1 | 85 | 90 | 100 | 62 | 85 | 100 | 46 | 100 | 2 | 82 | 100 | 50 | 100 | 100 | 42 | 100 | 67 | 27 | 100 | 95 | kinase still bound, per cent of control (BTK (human)): 7.3%; kinase still bound, per cent of control (CLK1 (human)): 100%; kinase still bound, per cent of control [1]: 0.45%; kinase still bound, per cent of control (PHKG1 (human)): 53%; kinase still bound, per cent of control (PI4KB (human)): 100%; kinase still bound, per cent of control (PIK3C2B (human)): 100%; kinase still bound, per cent of control (PKN2 (human)): 100%; kinase still bound, per cent of control (PRKCH (human)): 100%; kinase still bound, per cent of control (PRKCQ (human)): 100%; kinase still bound, per cent of control (PRKX (human)): 81%; kinase still bound, per cent of control (PRPF4B (human)): 97%; kinase still bound, per cent of control (RET (human)): 0.15%; kinase still bound, per cent of control (ROCK1 (human)): 98%; kinase still bound, per cent of control (SRC (human)): 32%; kinase still bound, per cent of control (STK11 (human)): 100%; kinase still bound, per cent of control (STK17A (human)): 100%; kinase still bound, per cent of control (TIE1 (human)): 27%; kinase still bound, per cent of control (TRPM6 (human)): 98%; kinase still bound, per cent of control (TTK (human)): 40%; kinase still bound, per cent of control (ZAP70 (human)): 100%
CCc1nc(-c2cccc(C)c2)c(-c2ccnc(NC(=O)c3ccccc3)c2)s1 | 85 | 0.2 | 80 | 100 | 89 | 99 | 100 | 93 | 16 | 36 | 100 | 100 | 95 | 100 | 0 | 90 | 0.3 | 0 | 100 | 98 | kinase still bound, per cent of control (CLK1 (human)): 92%; kinase still bound, per cent of control [2]: 100%; kinase still bound, per cent of control (PHKG1 (human)): 100%; kinase still bound, per cent of control (PI4KB (human)): 100%; kinase still bound, per cent of control (PIK3C2B (human)): 100%; kinase still bound, per cent of control (PKN2 (human)): 76%; kinase still bound, per cent of control (PRKCH (human)): 88%; kinase still bound, per cent of control (PRKCQ (human)): 100%; kinase still bound, per cent of control (PRKX (human)): 100%; kinase still bound, per cent of control (PRPF4B (human)): 80%; kinase still bound, per cent of control (RET (human)): 66%; kinase still bound, per cent of control (ROCK1 (human)): 97%; kinase still bound, per cent of control (SRC (human)): 14%; kinase still bound, per cent of control (STK11 (human)): 96%; kinase still bound, per cent of control (STK17A (human)): 81%; kinase still bound, per cent of control (TIE1 (human)): 96%; kinase still bound, per cent of control (TRPM6 (human)): 100%; kinase still bound, per cent of control (TTK (human)): 70%; kinase still bound, per cent of control (ZAP70 (human)): 100%
